Columns and labels:
[1] = system: isolated HLA-DR4 molecules; test: Binding inhibition assay: inhibition of binding of biotinylated invariant chain indicator peptide; parameters: species or system human; conditions: HLA-DR4 10 µg/ml, indicator peptide 1 µM, varying concentrations of test peptide, overnight at room temperature (Fig. 3)
Description: Synthetic peptides with amino acid sequences based on the 6 core regions identified by the IMF were tested for their ability to bind to isolated HLA-DR4 molecules in a binding inhibition assay performed essentially as previously described [Chicz et al. (1997), J. Immunol. 159: 4935-4942]. In brief, aliquots of immunopurified preparation of HLA-DR4 (final concentration of 10 µg/ml) were incubated with a biotinylated HLA-DR4 binding peptide (consisting of residues 98-117 of class II MHC invariant chain) ("the indicator peptide") (1 µM) and varying concentrations of the test peptides in 0.2 ml tubes. After an overnight incubation at room temperature, the contents of each tube were transferred to a well of a 96-well plastic microtiter plate precoated with anti-HLA-DR4 antibody. The microtiter plates were rocked for 60 min at room temperature and unbound material was removed by rigorous washing. The relative amount of bound standard peptide in each well was determined by measuring color development after addition of streptavidin-conjugated alkaline phosphatase, washing, and adding a chromogenic alkaline phosphatase substrate.
In order to test for the ability of the 6 consensus peptides representing the 6 core regions defined by the IMF described in Example 1, a binding inhibition assay was performed (Fig. 3). […]

peripheral blood T cells = test: T cell proliferation assay (Epitope Verification) with synthetic IA-2 peptides; assay type: cell-based, human; parameters: key: significant ("POS" in Table 2) proliferative responses; conditions: HLA-DR4 IDDM patient DC (I), DRB1 genotype 0403.0405; peptide 10 µg/ml, 5 days; significant = SI >2.0 and >40% wells positive
Description: To establish that peptide epitopes identified are relevant to IDDM (i.e., that they are recognized by CD4+ T cells of patients with IDDM or pre-IDDM expressing the DR4 molecule but not by non-diabetic controls also expressing the DR4 molecule), T cell proliferation assays were carried out using synthetic peptides having amino acid sequences based upon the peptides identified by mass spectrometry to be derived from IA-2ic. Peptides were synthesized using Fmoc chemistry with an Applied Biosystems SYNERGY peptide synthesizer and purified by preparative RP-HPLC on a Waters 2690 Alliance system equipped with a Radial Compression Module. […] Peripheral blood mononuclear cells from recent onset IDDM patients (<6 months from diagnosis) and healthy controls expressing the appropriate HLA DR4 molecules were separated by density gradient centrifugation and co-cultured in wells of 96-well U-bottom plates with peptides at a concentration of 10 µg/ml for 5 days in 150 µl RPMI 1640/10% pooled normal AB serum, followed by pulsing with 0.5 µCi [^3H]-thymidine/well and harvesting onto filters for radioactivity counting measured in counts per minute (cpm). […] Results were expressed as a stimulation index (SI) which is the ratio of the cpm obtained from cultures containing peptide to the cpm obtained from cultures without peptide (mean cpm of 12 wells in each case). […]

Row | Substance | binding to HLA-DR4 molecules [1] | T cell response to IA-2 peptide (peripheral blood T cells)
1 | Ii-c: a peptide consisting of residues 98-117 of class II MHC invariant chain (PKPPKPVSKMRMATPLLMQA) [reference compound] | bind with intermediate avidity | –
2 | LAKEWQALCAYQAEPNTCATAQGE [709-732, peptide consisting of residues 709-732 of IA-2] | bind strongly | POS
